{
  "source": "patent US10780090B2",
  "about": "“Heteroaryl compounds useful as inhibitors of SUMO activating enzyme” (Millennium Pharmaceuticals, Inc., priority 2014, dated 2020)",
  "target": "recombinant human SAE enzyme (Homo sapiens (Human), UniProt Q9UBT2)",
  "sequence (Q9UBT2 whole entry)": "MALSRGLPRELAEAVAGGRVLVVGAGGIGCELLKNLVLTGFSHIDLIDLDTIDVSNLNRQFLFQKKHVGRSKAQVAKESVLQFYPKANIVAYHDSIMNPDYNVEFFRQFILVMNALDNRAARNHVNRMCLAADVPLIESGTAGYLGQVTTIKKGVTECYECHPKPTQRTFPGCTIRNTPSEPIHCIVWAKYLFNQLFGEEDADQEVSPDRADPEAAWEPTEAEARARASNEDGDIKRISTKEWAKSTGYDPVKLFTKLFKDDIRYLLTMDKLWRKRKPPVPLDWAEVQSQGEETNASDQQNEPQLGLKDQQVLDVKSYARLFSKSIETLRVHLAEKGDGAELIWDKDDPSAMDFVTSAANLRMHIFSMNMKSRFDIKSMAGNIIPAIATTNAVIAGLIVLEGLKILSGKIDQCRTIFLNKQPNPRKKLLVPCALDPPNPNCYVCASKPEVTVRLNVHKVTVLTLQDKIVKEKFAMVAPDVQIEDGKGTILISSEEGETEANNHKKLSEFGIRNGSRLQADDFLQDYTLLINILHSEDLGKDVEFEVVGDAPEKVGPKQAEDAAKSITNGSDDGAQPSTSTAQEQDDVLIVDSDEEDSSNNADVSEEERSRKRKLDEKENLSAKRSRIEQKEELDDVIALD",
  "sequence (Q9UBE0 whole entry partner)": "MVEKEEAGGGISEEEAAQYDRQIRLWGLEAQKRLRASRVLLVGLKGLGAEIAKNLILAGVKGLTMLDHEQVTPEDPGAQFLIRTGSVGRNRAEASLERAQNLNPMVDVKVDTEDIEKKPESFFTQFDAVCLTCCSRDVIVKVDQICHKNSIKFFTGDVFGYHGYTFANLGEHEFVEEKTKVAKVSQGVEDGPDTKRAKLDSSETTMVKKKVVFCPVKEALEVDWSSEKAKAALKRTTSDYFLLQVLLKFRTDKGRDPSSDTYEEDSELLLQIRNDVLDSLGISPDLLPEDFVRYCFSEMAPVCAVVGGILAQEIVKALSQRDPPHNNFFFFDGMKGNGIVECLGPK",
  "test": "SAE HTRF enzyme assay",
  "assay_type": "biochemical",
  "conditions": "for inhibition at 0.111 µM: read-out: Percent Inhibition",
  "how_it_was_run": "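Human SAE (0.11 nM) with 0.5 μM ATP, 0.125 μM Sumo-Flag and 0.01 μM Ubc9-GST in HEPES pH 7.5, 5 mM MgCl2, 250 μM GSH; 105 min at 24 °C. Stopped with EDTA; HTRF read after 2 h with Eu-anti-Flag and APC-anti-GST. Percent inhibition or IC50 reported.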",
  "key": {"[1]": {"conditions": "SAE inhibition at compound concentration 0.111 μM"}, "[2]": {"conditions": "SAE inhibition, class symbols, legend in nM"}},
  "data": [
    {"smiles": "Cc1sc(C(=O)c2cncnc2N[C@@H]2C[C@H](COS(N)(=O)=O)[C@@H](O)C2)cc1[C@@H]1OCC(F)(F)c2ccc(Cl)cc21.Cc1sc(C(=O)c2cncnc2N[C@@H]2C[C@H](COS(N)(=O)=O)[C@@H](O)C2)cc1[C@H]1OCC(F)(F)c2ccc(Cl)cc21", "note": "(mixture of isomers) [I-288, [(1R,2S,4R)-4-{[5-({4-[(1R)-7-chloro-4,4-difluoro-3,4-dihydro-1H-isochromen-1-yl]-5-methyl-2-thienyl}carbonyl)pyrimidin-4-yl]amino}-2-hydroxycyclopentyl]methyl sulfamate and [(1R,2S,4R)-4-{[5-({4-[(1S)-7-chloro-4,4-difluoro-3,4-dihydro-1H-isochromen-1-yl]-5-methyl-2-thienyl}carbonyl)pyrimidin-4-yl]amino}-2-hydroxycyclopentyl]methyl sulfamate]", "values": [
      {"measurement": "Percent Inhibition", "setting": "[1]", "result": 99, "unit": "%"},
      {"measurement": "IC50", "setting": "[2]", "result": "< 10", "unit": "nM"}
    ]},
    {"smiles": "NS(=O)(=O)OC[C@H]1C[C@@H](Nc2ncncc2C(=O)c2cc(Cc3cccc(Cl)c3)c([C@@H]3CCCO3)s2)C[C@@H]1O", "note": "(single isomer, unassigned) [I-41b, [(1R,2S,4R)-4-{[5-({4-(3-chlorobenzyl)-5-[(2S)-tetrahydrofuran-2-yl]-2-thienyl}carbonyl)pyrimidin-4-yl]amino}-2-hydroxycyclopentyl]methyl sulfamate or [(1R,2S,4R)-4-{[5-({4-(3-chlorobenzyl)-5-[(2R)-tetrahydrofuran-2-yl]-2-thienyl}carbonyl)pyrimidin-4-yl]amino}-2-hydroxycyclopentyl]methyl sulfamate]", "values": [
      {"measurement": "Percent Inhibition", "setting": "Concentration 0.111 μM", "result": 98},
      {"measurement": "IC50", "setting": "class symbols A/B/C", "result": "< 10", "unit": "nM"}
    ]},
    {"smiles": "NS(=O)(=O)OC[C@H]1C[C@@H](Nc2ncncc2C(=O)c2cc(Cc3ccccc3)cs2)C[C@@H]1O", "note": "[I-88, [(1R,2S,4R)-4-({5-[(4-benzyl-2-thienyl)carbonyl]pyrimidin-4-yl}amino)-2-hydroxycyclopentyl]methyl sulfamate]", "values": [
      {"measurement": "inhibition at 0.111 µM", "setting": "Concentration 0.111 μM", "result": 98, "unit": "%"},
      {"measurement": "IC50", "setting": "class symbols A/B/C", "result": "< 10", "unit": "nM"}
    ]},
    {"smiles": "NS(=O)(=O)OC[C@H]1C[C@@H](Nc2ncncc2C(=O)c2cc(CO)co2)C[C@@H]1O", "note": "[I-216, [(1R,2S,4R)-2-Hydroxy-4-{(5-[4-(hydroxymethyl)-2-furoyl]pyrimidin-4-yl}amino)cyclopentyl]methyl sulfamate]", "values": [
      {"measurement": "inhibition at 0.111 µM", "setting": "Concentration 0.111 μM", "result": 36, "unit": "%"},
      {"measurement": "IC50", "setting": "class symbols A/B/C", "result": "100 to 1000", "unit": "nM"}
    ]},
    {"smiles": "CN1Cc2cc(Cl)ccc2[C@@H]1c1csc(C(=O)c2cncnc2N[C@@H]2C[C@H](COS(N)(=O)=O)[C@@H](O)C2)c1", "note": "(mixture of isomers) [I-322, [(1R,2S,4R)-4-{[5-({4-[(1R)-5-chloro-2-methyl-2,3-dihydro-1H-isoindol-1-yl]-2-thienyl}carbonyl)pyrimidin-4-yl]amino}-2-hydroxycyclopentyl]methyl sulfamate and [(1R,2S,4R)-4-{[5-({4-[(1S)-5-chloro-2-methyl-2,3-dihydro-1H-isoindol-1-yl]-2-thienyl}carbonyl)pyrimidin-4-yl]amino}-2-hydroxycyclopentyl]methyl sulfamate]", "values": [
      {"measurement": "Percent Inhibition", "setting": "[1]", "result": 92, "unit": "%"},
      {"measurement": "IC50", "setting": "[2]", "result": "10 to 100", "unit": "nM"}
    ]},
    {"smiles": "CCc1cccc(Cc2cc(C(=O)c3cncnc3N[C@@H]3C[C@H](COS(N)(=O)=O)[C@@H](O)C3)sc2C)c1", "note": "[I-111, {(1R,2S,4R)-4-[(5-{[4-(3-ethylbenzyl)-5-methyl-2-thienyl]carbonyl}pyrimidin-4-yl)amino]-2-hydroxycyclopentyl}methyl sulfamate]", "values": [
      {"measurement": "inhibition at 0.111 µM", "setting": "Concentration 0.111 μM", "result": 98, "unit": "%"},
      {"measurement": "IC50", "setting": "class symbols A/B/C", "result": "< 10", "unit": "nM"}
    ]},
    {"smiles": "N[C@H](c1cccc(Cl)c1)c1csc(C(=O)c2cncnc2N[C@@H]2C[C@H](COS(N)(=O)=O)[C@@H](O)C2)c1", "note": "(mixture of isomers) [I-36, [(1R,2S,4R)-4-{[5-({4-[(R)-amino(3-chlorophenyl)methyl]-2-thienyl}carbonyl)pyrimidin-4-yl]amino}-2-hydroxycyclopentyl]methyl sulfamate and [(1R,2S,4R)-4-{[5-({4-[(S)-amino(3-chlorophenyl)methyl]-2-thienyl}carbonyl)pyrimidin-4-yl]amino}-2-hydroxycyclopentyl]methyl sulfamate]", "values": [
      {"measurement": "Percent Inhibition", "setting": "Concentration 0.111 μM", "result": 100},
      {"measurement": "IC50", "setting": "class symbols A/B/C", "result": "< 10", "unit": "nM"}
    ]},
    {"smiles": "NS(=O)(=O)OC[C@H]1C[C@@H](Nc2ncncc2C(=O)c2cc([S@+]([O-])c3cccc(Cl)c3)c(Cl)s2)C[C@@H]1O", "note": "[I-94, [(1R,2S,4R)-4-({[5-({5-Chloro-4-[(R)-(3-chlorophenyl)sulfinyl]-2-thienyl}carbonyl)pyrimidin-4-yl]amino}-2-hydroxycyclopentyl]methyl sulfamate and [(1R,2S,4R)-4-{[5-({5-chloro-4-[(S)-(3-chlorophenyl)sulfinyl]-2-thienyl}carbonyl)pyrimidin-4-yl]amino}-2-hydroxycyclopentyl]methyl sulfamate]", "values": [
      {"measurement": "Percent Inhibition", "setting": "Concentration 0.111 μM", "result": 98},
      {"measurement": "IC50", "setting": "class symbols A/B/C", "result": "< 10", "unit": "nM"}
    ]},
    {"smiles": "NS(=O)(=O)OC[C@H]1C[C@@H](Nc2ncncc2C(=O)c2cc(Cc3cccc(Cl)c3Cl)cs2)C[C@@H]1O", "note": "[I-155, {(1R,2S,4R)-4-[(5-{[4-(2,3-dichlorobenzyl)-2-thienyl]carbonyl}pyrimidin-4-yl)amino]-2-hydroxycyclopentyl}methyl sulfamate]", "values": [
      {"measurement": "inhibition at 0.111 µM", "setting": "Concentration 0.111 μM", "result": 92, "unit": "%"},
      {"measurement": "IC50", "setting": "class symbols A/B/C", "result": "< 10", "unit": "nM"}
    ]},
    {"smiles": "Cc1sc(C(=O)c2cncnc2N[C@@H]2C[C@H](COS(N)(=O)=O)[C@@H](O)C2)cc1[C@@H]1OCCc2ccc(Cl)cc21", "note": "[I-257b, [(1R,2S,4R)-4-{[5-({4-[(1R)-7-Chloro-3,4-dihydro-1H-isochromen-1-yl]-5-methyl-2-thienyl}carbonyl)pyrimidin-4-yl]amino}-2-hydroxycyclopentyl]methyl sulfamate]", "values": [
      {"measurement": "inhibition at 0.111 µM", "setting": "Concentration 0.111 μM", "result": 99, "unit": "%"},
      {"measurement": "IC50", "setting": "class symbols A/B/C", "result": "< 10", "unit": "nM"}
    ]},
    {"smiles": "NS(=O)(=O)OC[C@H]1C[C@@H](Nc2ncncc2C(=O)c2ccc([C@@H]3OCCCc4ccc(Cl)cc43)s2)C[C@@H]1O", "note": "(single isomer, unassigned) [I-343b, [(1R,2S,4R)-4-{[5-({5-[(1R)-8-chloro-1,3,4,5-tetrahydro-2-benzoxepin-1-yl]-2-thienyl}carbonyl)pyrimidin-4-yl]amino}-2-hydroxycyclopentyl]methyl sulfamate or [(1R,2S,4R)-4-{[5-({5-[(1S)-8-chloro-1,3,4,5-tetrahydro-2-benzoxepin-1-yl]-2-thienyl}carbonyl)pyrimidin-4-yl]amino}-2-hydroxycyclopentyl]methyl sulfamate]", "values": [
      {"measurement": "Percent Inhibition", "setting": "[1]", "result": 84, "unit": "%"},
      {"measurement": "IC50", "setting": "[2]", "result": "10 to 100", "unit": "nM"}
    ]},
    {"smiles": "N[C@H](c1cccc(Br)c1)c1cc(C(=O)c2cncnc2N[C@@H]2C[C@H](COS(N)(=O)=O)[C@@H](O)[C@H]2O)sc1Cl", "note": "(single isomer, unassigned) [I-24b, [(1R,2R,3S,4R)-4-{[5-({4-[(R)-amino(3-bromophenyl)methyl]-5-chloro-2-thienyl}carbonyl)pyrimidin-4-yl]amino}-2,3-dihydroxycyclopentyl]methyl sulfamate or [(1R,2R,3S,4R)-4-{[5-({4-[(S)-amino(3-bromophenyl)methyl]-5-chloro-2-thienyl}carbonyl)pyrimidin-4-yl]amino}-2,3-dihydroxycyclopentyl]methyl sulfamate]", "values": [
      {"measurement": "Percent Inhibition", "setting": "Concentration 0.111 μM", "result": 101}
    ]},
    {"smiles": "Cc1sc(C(=O)c2cncnc2N[C@@H]2C[C@H](COS(N)(=O)=O)[C@@H](O)C2)cc1[C@@H]1OCCc2ccc(Cl)nc21", "note": "(single isomer, unassigned) [I-286b, [(1R,2S,4R)-4-{[5-({4-[(8S)-2-chloro-5,8-dihydro-6H-pyrano[3,4-b]pyridin-8-yl]-5-methyl-2-thienyl}carbonyl)pyrimidin-4-yl]amino}-2-hydroxycyclopentyl]methyl sulfamate or [(1R,2S,4R)-4-{[5-({4-[(8R)-2-chloro-5,8-dihydro-6H-pyrano[3,4-b]pyridin-8-yl]-5-methyl-2-thienyl}carbonyl)pyrimidin-4-yl]amino}-2-hydroxycyclopentyl]methyl sulfamate]", "values": [
      {"measurement": "Percent Inhibition", "setting": "[1]", "result": 99, "unit": "%"},
      {"measurement": "IC50", "setting": "[2]", "result": "< 10", "unit": "nM"}
    ]},
    {"smiles": "NS(=O)(=O)OC[C@H]1C[C@@H](Nc2ncncc2C(=O)c2cc(C3OCCc4ccc(Cl)cc43)cs2)C[C@@H]1O", "note": "(single isomer, unassigned) [I-261a, [(1R,2S,4R)-4-{[5-({4-[(1R)-7-chloro-3,4-dihydro-1H-isochromen-1-yl]-2-thienyl}carbonyl)pyrimidin-4-yl]amino}-2-hydroxycyclopentyl]methyl sulfamate or [(1R,2S,4R)-4-{[5-({4-[(1S)-7-chloro-3,4-dihydro-1H-isochromen-1-yl]-2-thienyl}carbonyl)pyrimidin-4-yl]amino}-2-hydroxycyclopentyl]methyl sulfamate]", "values": [
      {"measurement": "Percent Inhibition", "setting": "Concentration 0.111 μM", "result": 76},
      {"measurement": "IC50", "setting": "class symbols A/B/C", "result": "10 to 100", "unit": "nM"}
    ]},
    {"smiles": "NS(=O)(=O)OC[C@H]1C[C@@H](Nc2ncncc2C(=O)c2cc(C3NCCc4ccc(Cl)cc43)cs2)C[C@@H]1O", "note": "(single isomer, unassigned) [I-274a, [(1R,2S,4R)-4-{[5-({4-[(1R)-7-chloro-1,2,3,4-tetrahydroisoquinolin-1-yl]-2-thienyl}carbonyl)pyrimidin-4-yl]amino}-2-hydroxycyclopentyl]methyl sulfamate or [(1R,2S,4R)-4-{[5-({4-[(1S)-7-chloro-1,2,3,4-tetrahydroisoquinolin-1-yl]-2-thienyl}carbonyl)pyrimidin-4-yl]amino}-2-hydroxycyclopentyl]methyl sulfamate]", "values": [
      {"measurement": "Percent Inhibition", "setting": "Concentration 0.111 μM", "result": 98},
      {"measurement": "IC50", "setting": "class symbols A/B/C", "result": "< 10", "unit": "nM"}
    ]},
    {"smiles": "NS(=O)(=O)OC[C@H]1C[C@@H](Nc2ncncc2C(=O)c2ccc(CO)o2)C[C@@H]1O", "note": "[I-206, [(1R,2S,4R)-2-hydroxy-4-({5-[5-(hydroxymethyl)-2-furoyl]pyrimidin-4-yl}amino)cyclopentyl]methyl sulfamate]", "values": [
      {"measurement": "inhibition at 0.111 µM", "setting": "Concentration 0.111 μM", "result": 49, "unit": "%"},
      {"measurement": "IC50", "setting": "class symbols A/B/C", "result": "100 to 1000", "unit": "nM"}
    ]}
  ]
}
